US6664088B2, “Production of vanillin” (Plant Bioscience Limited, priority 1996, dated 2003)
Like-named read-outs stand apart in the source and are kept apart here.

Assays:
[1] = target: T1, trans-feruloyl SCoA hydratase/aldol cleavage enzyme (Pseudomonas fluorescens, UniProt O69762); assay: trans-feruloyl SCoA hydratase/aldol cleavage enzyme activity, reaction products by HPLC; assay type: biochemical; conditions: 30° C., 0.4 mM substrate, 2.8 μg enzyme partially purified by Mono-Q and Mono-P
T1 construct: Purification from cells of Ps. fluorescens biovar V, strain AN103, was; endogenous in cells; host or cells: Ps. fluorescens biovar; V strain AN103 grown on trans-ferulate (crude extract, then Mono Q, Mono P, PhenylSuperose); also crude extract of E. coli JM109(DE3) with the gene in pSP72
T1 sequence (O69762 2-276): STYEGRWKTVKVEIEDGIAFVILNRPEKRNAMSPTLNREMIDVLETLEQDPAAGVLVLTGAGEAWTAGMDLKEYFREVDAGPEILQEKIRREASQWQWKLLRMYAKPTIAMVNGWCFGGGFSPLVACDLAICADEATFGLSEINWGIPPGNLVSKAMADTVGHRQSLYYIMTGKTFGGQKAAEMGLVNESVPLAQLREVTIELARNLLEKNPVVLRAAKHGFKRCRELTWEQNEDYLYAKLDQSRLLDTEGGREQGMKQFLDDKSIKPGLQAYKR
Procedure: At each stage of purification, active fractions were detected by a micro-adaptation of the assay with HMPHP SCoA described above (Example 2); reactions were performed in 100 μl of reaction mixture for ca. 4 min at room temperature in microtitre wells and absorbance was then measured in an MR 5000 microtitre plate reader (Dynatech, Guernsey, Channel Islands), equipped with a 340 nm filter. The activity of the pooled fractions was measured using HPLC to determine the reaction products of both HMPHP SCoA, (0.4 mM) and trans-feruloyl SCoA (0.28 mM) as substrates. […] The proportionality of the reactions with time and with quantity of enzyme was established in preliminary determinations.
E. coli cells were grown at 37° C. for 3 h in 50 ml of L medium, containing ampicillin (50 μg/ml) with and without induction by IPTG. Extracts were prepared as described above in Example 2 for Ps. fluorescens AN103, but without centrifugation. The crude extract was used for assay. Enzyme activity with both HMPHP SCoA and trans-feruloyl ScoA was determined as described above in Example 4 using HPLC to determine the reaction products. […] There was no activity with either trans-feruloyl SCoA or HMPHP SCoA in extracts of an unmanipulated E. coli strain, whether induced or not. In the manipulated strain E. coli 1039 that expresses the Pseudomonas gene the specific activity was slightly lower in the exLract made following induction than in that made from uninduced bacteria. […] It was not possible to detect expression of the 31 kD protein visually on Coomassie-stained, one-dimensional SDS gels because of its co-migration with the strongly expressed β-lactamase encoded by the vector ampicillin resistance marker.

[2] = tested on: enzyme activities I, II and III from Ps. fluorescens biovar V, strain AN103; assay: Use of cinnamates as substrates by enzyme activities I, II and III; assay type: biochemical, Pseudomonas fluorescens; conditions: AN103 enzymes
[3] = tested on: Ps. fluorescens biovar. V, strain AN103; assay: Relative growth of strain AN103 on a range of carbon substrates (absorbance at 600 nm); assay type: cell-based, Pseudomonas fluorescens; conditions: for activity at 10000 µM: read-out: Relative Growth (%)
Procedure: KH2PO4, 5 g; […] FeSO4, 0.5 mg; CaCl2, 0.5 mg; MnCl2.5H2O, 5 mg; (NH4)6Mo2O7.4H2O, 1.1 mg; MgSO4, 5 mg; EDTA, 50 mg; […] The pH was 7.0. Carbon sources were included as indicated. […] Growth was monitored by measuring absorbance at 550 or 600 nm. [table]

[4] = tested on: cell-free extract of strain AN103; assay: Incubation of CoASH thioesters with cell-free extract; assay type: biochemical, Pseudomonas fluorescens
Procedure: (§1) Cell-free extracts were routinely incubated at 30° C. and pH 7.5 in a reaction mixture (1 ml) containing 90 mM Tris HCl buffer and 2.5 mM MgCl2, together with (as appropriate) 0.5 mM trans-ferulic acid, 0.2 mM CoASH (Li salt) and 2.5 mM ATP. This complete reaction mixture constituted an assay for trans-ferulate: CoASH ligase, where the initial increase in absorbance at 345 nm was monitored against a blank reaction mixture from which CoASH was omitted. Incubations with HMPHP SCoA (generally 0.4 mM) were performed similarly, but with the omission of trans-ferulic acid, CoASH and ATP.
Metabolites of trans-ferulic acid, including the CoASH thioesters, were analysed and quantitated by HPLC using a Lichrosorb RP-18 column (20 cm×4.6 mm; Capital HPLC, Broxburn, West Lothian, UK) with a multiphasic gradient; solvent “A” was 20 mM NaOAc, adjusted to pH 6.0 and solvent“B” was MeOH; the flow rate was 1.2 ml/min; the proportion of solvent “B” rose linearly from 0% at 0 min to 10% at 15 min and thence to 50% at 40 min and 70% at 45 min, finally decreasing to 0% at 50 min. Detection was with a Spectra Focus detector (Thermo Separation Products, Stone, Staffs. UK), which permitted u/v spectral analysis of each eluting component.

[5] = target: T2, Vanillin: NAD+ oxidoreductase (Pseudomonas fluorescens, UniProt O69763); assay: Vanillin:NAD+ oxidoreductase assay, decrease in absorbance at 340 nm; assay type: biochemical; conditions: gene expressed in E. coli strain DH5 from pUC18
T2 construct: endogenous in cells; host or cells: Ps. fluorescens AN103 / van 1 / van 10 cell-free extracts; also E. coli DH5 carrying pUC18 with the full-length ORF
T2 sequence (O69763 whole entry): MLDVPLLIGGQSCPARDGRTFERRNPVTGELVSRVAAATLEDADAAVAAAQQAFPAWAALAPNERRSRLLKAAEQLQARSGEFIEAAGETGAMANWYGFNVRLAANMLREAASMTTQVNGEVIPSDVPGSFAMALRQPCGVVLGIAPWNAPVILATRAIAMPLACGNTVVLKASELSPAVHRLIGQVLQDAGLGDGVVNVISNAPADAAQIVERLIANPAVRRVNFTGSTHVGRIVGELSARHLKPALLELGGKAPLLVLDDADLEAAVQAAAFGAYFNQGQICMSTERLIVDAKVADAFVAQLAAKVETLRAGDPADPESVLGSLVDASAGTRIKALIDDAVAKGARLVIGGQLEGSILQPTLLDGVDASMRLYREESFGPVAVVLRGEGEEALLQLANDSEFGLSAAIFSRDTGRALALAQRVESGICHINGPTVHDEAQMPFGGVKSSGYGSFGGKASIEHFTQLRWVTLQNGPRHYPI
Procedure: Vanillin: NAD^+ oxidoreductase was assayed at 30° C. and pH 7.0 by monitoring the initial decrease in absorbance at 340 nm against a blank cuvette from which NAD^+ was omitted. Because of the similarity in extinction coefficient at 340 nm for vanillin and for NADH, the sensitivity of the assay was increased by catalysing the regeneration of NADH to NAD^+ by providing lactate dehydrogenase and pyruvate. Reaction mixtures contained, in 1 ml volume, 75 mM KPi buffer, pH 7.0, 0.125 mM vanillin, 1.2 mM Na pyruvate, lactate dehydrogenase (rabbit muscle), 1.1 U and NAD^+, 0.5 mM.
In order to confirm the function of this gene, expression was determined in E. coli strain DH5, which contained the vector pUC18 into which the full-length open reading frame had been inserted such that expression was from the lac promoter on the vector. Vanillin: NAD^+ oxidoreductase activity was confirmed and was absent from a control strain bearing the unmodified pUC 18 vector. Using the enzyme assay described in Example 2, activity with vanillin as substrate was determined as 3.0 nkat/mg of protein; activity with salicylaldehyde was 2.8 nkat/mg.

[6] = tested on: trans-ferulate: CoASH ligase; assay: trans-ferulate:CoASH ligase assay, initial increase in absorbance at 345 nm; assay type: biochemical, Pseudomonas fluorescens; conditions: crude extracts of Ps. fluorescens AN103; initial rate at absorbance maximum of the SCoA thioester
Procedure: as §1

[7] = substrate 10 mM on MM Medium, 48 h at 25° C., absorbance at 600 nm
[8] = Pseudomonas fluorescens, substrate 10 mM on MM Medium, 48 h at 25° C., absorbance at 600 nm

`CC(C)(COP(=O)(O)OP(=O)(O)OC[C@H]1O[C@@H](n2cnc3c(N)ncnc32)[C@H](O)[C@@H]1OP(=O)(O)O)[C@@H](O)C(=O)NCCC(=O)NCCSC(=O)/C=C/c1ccc(O)c(O)c1` (relative stereo) [Caffeoyl SCoA, trans-caffeoyl SCoA] was tested, and the “Activity, utilisation of trans-p-hydroxycinnamoyl SCoA thioester” value [1] was 0.36 nkat/mg of protein.
For `COc1cc(C=CC(=O)SCCNC(=O)CCNC(=O)[C@H](O)C(C)(C)COP(=O)(O)OP(=O)(O)OC[C@H]2O[C@@H](n3cnc4c(N)ncnc43)[C@H](O)[C@@H]2OP(=O)(O)O)ccc1O` (relative stereo) [Feruloyl SCoA, trans-feruloyl SCoA], the “Activity, utilisation of trans-p-hydroxycinnamoyl SCoA thioester” value [1] was 0.60 nkat/mg of protein.
With `CC(C)(COP(=O)(O)OP(=O)(O)OC[C@H]1O[C@@H](n2cnc3c(N)ncnc32)[C@H](O)[C@@H]1OP(=O)(O)O)[C@@H](O)C(=O)NCCC(=O)NCCSC(=O)/C=C/c1ccc(O)cc1` (relative stereo) [p-Coumaroyl SCoA, trans-4-coumaroyl SCoA] the “Activity, utilisation of trans-p-hydroxycinnamoyl SCoA thioester” value [1] was 0.72 nkat/mg of protein.
In the case of `O=C(O)/C=C/c1ccc2c(c1)OCO2` [3,4-methylenedioxy-trans-cinnamate], the “Use as substrate by enzyme activities I, II and III” value (from here on “Use as substrate”) [2] is reported as “poor substrates”.
For `CC(=O)O` [Acetate], the “Relative Growth (%)” value [3, 7] was 47%.
Work on `O=C(O)/C=C/c1ccc(O)c(O)c1` [Caffeic acid, 3,4-dihydroxy-trans-cinnamate] yielded an activity at 10000 µM [3, 8] of 79%.
For `O=C(O)C=Cc1ccccc1` [Cinnamic acid], the activity at 10000 µM [3, 8] was 0% and the “Use as substrate” value [2] was “poor substrates”.
`COc1cc(/C=C/C(=O)O)ccc1O` [Ferulic acid, 4-hydroxy-3-methoxy-trans-cinnamate] was tested, and the activity at 10000 µM [3, 8] was 100%.
With `COc1cc(C(O)CC(=O)SCCNC(=O)CCNC(=O)[C@H](O)C(C)(C)COP(=O)(O)OP(=O)(O)OC[C@H]2O[C@@H](n3cnc4c(N)ncnc43)[C@H](O)[C@@H]2OP(=O)(O)O)ccc1O` (stereo partly drawn) [HMPHP SCoA, 4-hydroxy-3-methoxyphenyl-β-hydroxypropionyl SCoA] the “Metabolism by cell-free extract” value ([4]; incubated with cell-free extract, absence of NAD+) was “converted rapidly to acetyl SCoA and vanillin, in equimolar proportions”.
For `CO` [Methanol], the activity at 10000 µM ([3]; Pseudomonas fluorescens, 48 h) was 0%.
In the case of `O=C(O)c1ccc(O)c(O)c1` [Protocatechuic acid], the activity at 10000 µM ([3]; Pseudomonas fluorescens, 48 h) is reported as 77%.
In the case of `O=Cc1ccc(O)c(O)c1` [Protocatechuic aldehyde], the “Relative Growth (%)” value [3, 7] is reported as 0%.
`COc1cc(/C=C/C(=O)O)cc(OC)c1O` [Sinapic acid] was tested, and the activity at 10000 µM [3, 8] was 0%.
In the case of `COc1cc(C(=O)O)ccc1O` [Vanillic acid], the activity at 10000 µM [3, 8] is reported as 140%.
`COc1cc(C=O)ccc1O` [Vanillin, 4-hydroxy-3-methoxybenzaldehyde] was tested, and the activity at 1000 µM ([3]; Pseudomonas fluorescens, vanillin 1 mM on MM Medium, 48 h at 25° C., absorbance at 600 nm) was less than 100%, the “Effect on growth of strain AN103” value ([3]; concentrations higher than the low concentrations (<1 mM)) was “growth-inhibitory” and the “Activity as substrate of vanillin:NAD+ oxidoreductase” value [5] was 3.0 nkat/mg of protein.
With `O=C(O)/C=C/c1ccc(O)cc1` [p-Coumarate, 4-hydroxy-trans-cinnamate] the “Activity, formation of CoASH thioester” value [6] was 0.37 nkat/mg protein and the “Use as substrate” value [2] was “reasonable efficiency”.
For `O=Cc1ccccc1O` [salicylaldehyde], the “Activity as substrate of vanillin:NAD+ oxidoreductase” value [5] was 2.8 nkat/mg.
In the case of `COc1cc(C(=O)SCCNC(=O)CCNC(=O)[C@H](O)C(C)(C)COP(=O)(O)OP(=O)(O)OC[C@H]2O[C@@H](n3cnc4c(N)ncnc43)[C@H](O)[C@@H]2OP(=O)(O)O)ccc1O` [vanilloyl SCoA, 4hydroxy-3-methoxybenzoyl SCoA], the “Metabolism to vanillin by cell-free extracts” value ([4]; in the presence of NADH) is reported as “not to be metabolised to vanillin”.
